# Reference: patent US20260356830A1, “COMPOUNDS FOR MODULATING RET PROTEIN” (Bristol-Myers Squibb Company, priority 2022, published 2026)
# Target: T1, CCDC6-RET (Homo sapiens, UniProt P07949+Q16204+Q96SW2)
# T1 construct: CCDC6 (natural N-terminal fusion partner, UniProt Q16204); endogenous in cells; host or cells: TPC-1 (parental, papillary thyroid carcinoma)
# Assay: Cellular RET degradation, AlphaLISA, TPC-1 cell line
# Type: cell-based
# Details: for Dmax: TPC1, human, 24 h, read-out: Cell Density TPC-1/CCDC6-RET Ymax %; for DC50: read-out: Cell Density TPC-1/CCDC6-RET DC50, half-maximal degradation concentration, TPC-1 (CCDC6-RET), 24 hrs
# How it was run: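 Luminescent AlphaLISA read of RET abundance in lysates after 24 h compound exposure (37 °C, 2% FBS DMEM) of CCDC6-RET-bearing TPC-1 cells. % degradation relative to DMSO (high) and media (low) controls, fitted to 4-parameter logistic curve for DC50 and Ymax.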
# T1 sequence (Q16204+P07949 fused): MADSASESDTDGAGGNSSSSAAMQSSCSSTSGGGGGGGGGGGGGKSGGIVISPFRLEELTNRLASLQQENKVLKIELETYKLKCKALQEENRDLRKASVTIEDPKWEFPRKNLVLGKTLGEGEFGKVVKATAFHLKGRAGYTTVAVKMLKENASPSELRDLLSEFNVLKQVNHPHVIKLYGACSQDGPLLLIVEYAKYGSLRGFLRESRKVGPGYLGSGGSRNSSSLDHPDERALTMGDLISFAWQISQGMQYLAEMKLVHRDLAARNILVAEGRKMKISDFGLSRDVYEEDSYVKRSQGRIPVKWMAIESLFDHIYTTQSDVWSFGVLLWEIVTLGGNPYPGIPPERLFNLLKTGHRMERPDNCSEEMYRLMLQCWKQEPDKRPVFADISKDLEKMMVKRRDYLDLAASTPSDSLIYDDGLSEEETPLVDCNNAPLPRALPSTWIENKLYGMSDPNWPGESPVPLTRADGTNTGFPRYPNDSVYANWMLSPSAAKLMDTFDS
# T1 sequence (Q96SW2 whole entry, the tested form may be a part): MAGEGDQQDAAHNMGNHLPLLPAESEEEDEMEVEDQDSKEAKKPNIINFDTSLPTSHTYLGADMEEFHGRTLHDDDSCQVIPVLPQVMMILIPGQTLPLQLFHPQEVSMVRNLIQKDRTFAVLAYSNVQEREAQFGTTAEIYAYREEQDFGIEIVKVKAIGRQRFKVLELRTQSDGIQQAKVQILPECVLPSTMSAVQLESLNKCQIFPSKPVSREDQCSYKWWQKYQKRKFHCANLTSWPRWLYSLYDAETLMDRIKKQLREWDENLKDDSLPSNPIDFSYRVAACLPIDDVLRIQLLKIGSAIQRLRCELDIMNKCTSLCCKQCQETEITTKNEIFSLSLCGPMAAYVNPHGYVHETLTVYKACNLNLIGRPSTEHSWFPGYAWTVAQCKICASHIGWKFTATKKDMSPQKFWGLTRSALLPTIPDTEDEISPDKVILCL
# T1 sequence (Q16531 whole entry partner, the tested form may be a part): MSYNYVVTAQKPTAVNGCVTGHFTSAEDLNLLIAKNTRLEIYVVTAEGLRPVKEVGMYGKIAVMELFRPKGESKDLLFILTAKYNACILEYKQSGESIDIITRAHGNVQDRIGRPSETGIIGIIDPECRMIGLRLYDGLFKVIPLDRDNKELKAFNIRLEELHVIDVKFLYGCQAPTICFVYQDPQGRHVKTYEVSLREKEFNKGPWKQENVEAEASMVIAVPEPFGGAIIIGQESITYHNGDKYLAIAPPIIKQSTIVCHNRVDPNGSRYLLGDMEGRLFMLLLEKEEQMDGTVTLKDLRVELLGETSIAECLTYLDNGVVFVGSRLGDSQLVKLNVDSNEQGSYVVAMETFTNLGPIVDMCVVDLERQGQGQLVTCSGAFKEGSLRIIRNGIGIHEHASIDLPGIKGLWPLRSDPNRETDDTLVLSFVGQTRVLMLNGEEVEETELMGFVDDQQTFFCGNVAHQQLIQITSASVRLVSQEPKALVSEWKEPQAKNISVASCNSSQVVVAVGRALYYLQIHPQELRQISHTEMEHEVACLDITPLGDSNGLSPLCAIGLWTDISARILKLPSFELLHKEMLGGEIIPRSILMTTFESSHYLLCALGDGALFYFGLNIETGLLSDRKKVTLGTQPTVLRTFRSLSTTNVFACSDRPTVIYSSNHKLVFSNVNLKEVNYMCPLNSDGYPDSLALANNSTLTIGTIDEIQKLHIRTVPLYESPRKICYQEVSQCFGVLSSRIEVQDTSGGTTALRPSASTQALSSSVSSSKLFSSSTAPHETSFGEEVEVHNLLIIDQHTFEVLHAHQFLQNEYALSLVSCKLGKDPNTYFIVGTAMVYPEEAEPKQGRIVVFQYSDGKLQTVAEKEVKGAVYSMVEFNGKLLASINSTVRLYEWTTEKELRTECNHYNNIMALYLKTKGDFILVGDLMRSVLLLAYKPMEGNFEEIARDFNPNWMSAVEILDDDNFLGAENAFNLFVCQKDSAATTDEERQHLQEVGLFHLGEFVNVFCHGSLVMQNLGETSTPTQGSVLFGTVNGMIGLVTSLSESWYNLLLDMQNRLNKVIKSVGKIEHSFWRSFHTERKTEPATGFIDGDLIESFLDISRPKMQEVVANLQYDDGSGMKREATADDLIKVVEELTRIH
Dmax,DC50,Compound
> 90%,2 to 10 nM,"CCOc1cc(-c2ccc(N3CCC(CN(C(=O)CCCCN4CCN(c5ccc6c(c5)C(=O)N(C5CCC(=O)NC5=O)C6)CC4)C(C)C)(NC(=O)c4cc(F)ccc4F)CC3)nc2)c2c(C#N)cnn2c1 (centres unmarked) [Example 168, N-[1-(5-{3-cyano-6-ethoxypyrazolo[1,5-a]pyridin-4-yl}pyridin-2-yl)-4-[(5-{4-[2-(2,6-dioxopiperidin-3-yl)-3-oxo-2,3-dihydro-1H-isoindol-5-yl]piperazin-1-yl}-N-(propan-2-yl)pentanamido)methyl]piperidin-4-yl]-2,5-difluorobenzamide]"
60 to 90%,10 to 100 nM,"CCOc1cc(-c2ccc(N3CCC(CN(C(=O)CCCCCCN4CCN(c5ccc6c(c5)C(=O)N(C5CCC(=O)NC5=O)C6)CC4)C(C)C)(NC(=O)c4cc(F)ccc4F)CC3)nc2)c2c(C#N)cnn2c1 (centres unmarked) [Example 169, N-[1-(5-{3-cyano-6-ethoxypyrazolo[1,5-a]pyridin-4-yl}pyridin-2-yl)-4-[(7-{4-[2-(2,6-dioxopiperidin-3-yl)-3-oxo-2,3-dihydro-1H-isoindol-5-yl]piperazin-1-yl}-N-(propan-2-yl)heptanamido)methyl]piperidin-4-yl]-2,5-difluorobenzamide]"
60 to 90%,100 to 2000 nM,"CCOc1cc(-c2ccc(N3CCC(CN(C(=O)CCCCN4CCC(c5ccc6c(c5)C(=O)N(C5CCC(=O)NC5=O)C6)CC4)C(C)C)(NC(=O)c4cc(F)ccc4F)CC3)nc2)c2c(C#N)cnn2c1 (centres unmarked) [Example 170, N-[1-(5-{3-cyano-6-ethoxypyrazolo[1,5-a]pyridin-4-yl}pyridin-2-yl)-4-[(5-{4-[2-(2,6-dioxopiperidin-3-yl)-3-oxo-2,3-dihydro-1H-isoindol-5-yl]piperidin-1-yl}-N-(propan-2-yl)pentanamido)methyl]piperidin-4-yl]-2,5-difluorobenzamide]"
> 90%,2 to 10 nM,"CCOc1cc(-c2ccc(N3CCC(CN(C(=O)CCCCCCN4CCC(c5ccc6c(c5)C(=O)N(C5CCC(=O)NC5=O)C6)CC4)C(C)C)(NC(=O)c4cc(F)ccc4F)CC3)nc2)c2c(C#N)cnn2c1 (centres unmarked) [Example 171, N-[1-(5-{3-cyano-6-ethoxypyrazolo[1,5-a]pyridin-4-yl}pyridin-2-yl)-4-[(7-{4-[2-(2,6-dioxopiperidin-3-yl)-3-oxo-2,3-dihydro-1H-isoindol-5-yl]piperidin-1-yl}-N-(propan-2-yl)heptanamido)methyl]piperidin-4-yl]-2,5-difluorobenzamide]"
